Results as given in ChEMBL document CHEMBL1152116, “Novel benzimidazole-4-carboxylic acid derivatives as potent and selective 5-HT3 receptor ligands” (Bioorg Med Chem Lett, 1996).

Key:
[1] = biological target: T1, Serotonin 3 (5-HT3) receptor (Rattus norvegicus, UniProt P35563+Q9JJ16); assay: In vitro displacement of [3H]-LY 278584 from rat cerebral cortex 5-hydroxytryptamine 3 receptor; assay type: tissue-based
T1 sequence (P35563 whole entry): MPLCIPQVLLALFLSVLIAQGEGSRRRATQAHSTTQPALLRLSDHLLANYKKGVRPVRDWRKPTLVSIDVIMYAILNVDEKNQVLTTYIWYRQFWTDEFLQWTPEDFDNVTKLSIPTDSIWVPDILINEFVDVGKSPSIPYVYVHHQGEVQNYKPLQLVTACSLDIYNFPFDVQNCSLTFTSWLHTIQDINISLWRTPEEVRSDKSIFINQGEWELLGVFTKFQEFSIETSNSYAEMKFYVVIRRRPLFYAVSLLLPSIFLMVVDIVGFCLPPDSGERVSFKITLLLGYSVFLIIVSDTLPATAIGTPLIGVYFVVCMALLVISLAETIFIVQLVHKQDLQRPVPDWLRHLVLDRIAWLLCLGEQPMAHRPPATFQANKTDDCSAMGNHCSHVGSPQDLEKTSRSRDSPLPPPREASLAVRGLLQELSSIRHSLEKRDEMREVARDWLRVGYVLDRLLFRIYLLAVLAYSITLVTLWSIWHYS
T1 sequence (Q9JJ16 whole entry): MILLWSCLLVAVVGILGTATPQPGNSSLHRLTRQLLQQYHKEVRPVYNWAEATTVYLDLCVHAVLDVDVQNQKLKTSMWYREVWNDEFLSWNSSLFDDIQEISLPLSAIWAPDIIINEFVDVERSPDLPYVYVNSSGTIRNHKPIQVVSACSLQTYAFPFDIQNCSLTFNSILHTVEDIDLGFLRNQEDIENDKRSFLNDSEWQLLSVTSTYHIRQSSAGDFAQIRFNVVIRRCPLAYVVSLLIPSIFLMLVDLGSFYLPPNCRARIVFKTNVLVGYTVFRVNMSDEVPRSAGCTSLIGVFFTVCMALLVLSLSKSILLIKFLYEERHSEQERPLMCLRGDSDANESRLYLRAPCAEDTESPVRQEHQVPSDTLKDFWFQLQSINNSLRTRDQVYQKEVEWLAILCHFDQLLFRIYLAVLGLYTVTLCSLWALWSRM

[2] = biological target: 5-hydroxytryptamine receptor 4 (Rattus norvegicus, UniProt Q62758); assay: Displacement of [3H]GR-113808 from rat striatum 5-hydroxytryptamine 4 receptor
Sequence of 5-hydroxytryptamine receptor 4 (Q62758 whole entry): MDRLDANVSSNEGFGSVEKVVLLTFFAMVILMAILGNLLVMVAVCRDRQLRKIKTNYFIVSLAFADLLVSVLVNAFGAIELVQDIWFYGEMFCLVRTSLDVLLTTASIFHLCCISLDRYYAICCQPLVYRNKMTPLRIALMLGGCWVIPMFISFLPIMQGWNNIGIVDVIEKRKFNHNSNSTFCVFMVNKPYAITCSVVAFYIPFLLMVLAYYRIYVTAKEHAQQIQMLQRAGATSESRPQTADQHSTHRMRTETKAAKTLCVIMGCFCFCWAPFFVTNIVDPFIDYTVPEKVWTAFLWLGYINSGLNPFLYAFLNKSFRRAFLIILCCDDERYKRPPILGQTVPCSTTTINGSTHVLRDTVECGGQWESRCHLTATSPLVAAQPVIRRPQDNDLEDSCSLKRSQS

Q: Which results are given for O=C(NC1CN2CCC1CC2)c1cccc2nc[nH]c12 (stereo not given)?
A: Ki [1]: 0.0037 µM; Ki [2]: > 1 µM

Q: CN1CCC(NC(=O)c2cccc3[nH]cnc23)CC1 was tested. Which Ki [1] did it give?
A: 0.145 µM

Q: And the Ki [2]?
A: 0.719 µM

Q: With CN1CCC(NC(=O)c2cc(Cl)cc3[nH]cnc23)CC1 as the molecule, how does the Ki [1] read?
A: 0.0295 µM

Q: And the Ki [2]?
A: 0.054 µM

Q: Which Ki [1] does the source give for O=C(NC1CN2CCC1CC2)c1cc(Cl)cc2nc[nH]c12 (stereo not given) here?
A: 0.00029 µM

Q: What about the Ki [2] of the same molecule?
A: 0.168 µM

Q: CN1C2CCCC1CC(NC(=O)c1cc(Cl)cc3nc[nH]c13)C2 (stereo not given) was tested. Which Ki [1] did it give?
A: 0.154 µM

Q: And the Ki [2]?
A: 0.167 µM

Q: For CN1C2CCCC1CC(OC(=O)c1cc(Cl)cc3[nH]cnc13)C2 (stereo not given), which Ki [1] is on record?
A: 0.0049 µM

Q: What about the Ki [2] of the same molecule?
A: > 1 µM

Q: With CN1C2CCCC1CC(OC(=O)c1cccc3nc[nH]c13)C2 (stereo not given) as the molecule, how does the Ki [1] read?
A: 0.129 µM

Q: And the Ki [2]?
A: > 10 µM

Q: For CN1CCC(OC(=O)c2cccc3nc[nH]c23)CC1, which Ki [1] is on record?
A: > 1 µM

Q: And the Ki [2]?
A: > 10 µM

Q: Which Ki [1] does the source give for CN1C2CCCC1CC(NC(=O)c1cccc3[nH]cnc13)C2 (stereo not given) here?
A: 0.0061 µM

Q: What about the Ki [2] of the same molecule?
A: > 1 µM

Q: Which Ki [2] does the source give for CN1[C@@H]2CC[C@H]1C[C@@H](OC(=O)c1c[nH]c3ccccc13)C2 [TROPISETRON] here?
A: 0.063 µM

Q: Which Ki [2] does the source give for COc1cc(N)c(Cl)cc1C(=O)NC1CN2CCC1CC2 (stereo not given) [ZACOPRIDE] here?
A: 0.158 µM
